Experimental data reported in patent US20110117055A1, “Methods of Treating Hepatitis C Virus with Oxoacetamide Compounds” (priority 2009, published 2011).

Test system: HCV2aChLuc virus
Assay: In vitro HCVcc entry assay: HCV2aChLuc virus infection of Huh7 cells, Renilla luciferase read-out
Type: cell-based, HCV genotype 2a
Settings: Hepatitis C virus, Huh-7, read-out: Activity class (IC50), tested according to the method of Example 3

First: COc1c(NC(=O)C(=O)c2ccc(OCCN3CCN(C(=O)OC(C)(C)C)CC3)c3ccccc23)cc(C(C)(C)C)cc1NS(C)(=O)=O [Compound 56]
Second: COc1c(NC(=O)C(=O)c2ccc(OCCN3CCNCC3)c3ccccc23)cc(C(C)(C)C)cc1NS(C)(=O)=O [Compound 58]
The IC50 of the first is lower: 5 to 500 nM for the first, over 500 nM for the second. The first is the more potent here.

`COc1c(NC(=O)C(=O)c2ccc(OCCN3CC(C)OC(C)C3)c3ccccc23)cc(C(C)(C)C)cc1NS(C)(=O)=O` (stereo not drawn) [Compound 57] and `COc1c(NC(=O)C(=O)c2ccc(OCCN3CCCCC3)c3ccccc23)cc(C(C)(C)C)cc1NS(C)(=O)=O` [Compound 111] fall in the same range of IC50: 5 to 500 nM for the first, 5 to 500 nM for the second.

`CC(C)(C)c1cc(NC(=O)C(=O)c2ccc(OCCN3CCOCC3)c3ccccc23)n(C(C)(C)C)n1` [Compound 59] and `CC(C)(C)c1cc(NC(=O)C(=O)c2ccc(OCCN3CCOCC3)c3ccccc23)on1` [Compound 70] cannot be ordered by IC50: over 500 nM for the first, over 500 nM for the second.

`CC(C)(C)c1cc(NC(=O)C(=O)c2ccc(OCCN3CCOCC3)c3ccccc23)no1` [Compound 60] and `CC(C)(C)c1nnc(NC(=O)C(=O)c2ccc(OCCN3CCOCC3)c3ccccc23)s1` [Compound 61] cannot be ordered by IC50: over 500 nM for the first, over 500 nM for the second.

First: Cc1ccc(C(C)C)cc1NC(=O)C(=O)c1ccc(OCCN2CCOCC2)c2ccccc12 [Compound 62]
Second: Cc1ccc(C)c(NC(=O)C(=O)c2ccc(OCCN3CCOCC3)c3ccccc23)c1 [Compound 63]
The IC50 of the first is lower: 5 to 500 nM for the first, over 500 nM for the second. The first is the more potent here.

First: O=C(Nc1ccc2c(c1)CCC2)C(=O)c1ccc(OCCN2CCOCC2)c2ccccc12 [Compound 64]
Second: O=C(Nc1cccc2c1CCC2)C(=O)c1ccc(OCCN2CCOCC2)c2ccccc12 [Compound 65]
The IC50 of the first is higher: over 500 nM for the first, 5 to 500 nM for the second.

`CC(C)(C)CCNC(=O)C(=O)c1ccc(OCCN2CCOCC2)c2ccccc12` [Compound 66] and `CC(C)(C)CC(C)(C)NC(=O)C(=O)c1ccc(OCCN2CCOCC2)c2ccccc12` [Compound 67] cannot be ordered by IC50: over 500 nM for the first, over 500 nM for the second.

`O=C(N[C@@H]1C[C@H]2CC[C@@H]1C2)C(=O)c1ccc(OCCN2CCOCC2)c2ccccc12` [Compound 68] and `CC1(C)[C@@H]2CC[C@@]1(C)[C@@H](NC(=O)C(=O)c1ccc(OCCN3CCOCC3)c3ccccc13)C2` [Compound 69] cannot be ordered by IC50: over 500 nM for the first, over 500 nM for the second.

`CCNC(=O)c1cc(C(C)(C)C)cc(NC(=O)C(=O)c2ccc(OCCN3CCOCC3)c3ccccc23)c1O` [Compound 71] and `CC(C)(C)c1ccc(O)c(NC(=O)C(=O)c2ccc(OCCN3CCOCC3)c3ccccc23)c1` [Compound 122] fall in the same range of IC50: 5 to 500 nM for the first, 5 to 500 nM for the second.

`COc1c(Cl)cc(C(C)(C)C)cc1NC(=O)C(=O)c1ccc(OCCN2CCOCC2)c2ccccc12` [Compound 72] and `COc1c(Br)cc(C(C)(C)C)cc1NC(=O)C(=O)c1ccc(OCCN2CCOCC2)c2ccccc12` [Compound 89] fall in the same range of IC50: 5 to 500 nM for the first, 5 to 500 nM for the second.

`COc1ccc(C(C)(C)C)cc1NC(=O)C(=O)c1ccc(Nc2ccnc(N3CCOCC3)n2)c2ccccc12` [Compound 73] and `COc1c(NC(=O)C(=O)c2ccc(Nc3ccnc(N4CCOCC4)n3)c3ccccc23)cc(C(C)(C)C)cc1C(N)=O` [Compound 124] cannot be ordered by IC50: over 500 nM for the first, over 500 nM for the second.

First: COc1c(NC(=O)C(=O)c2ccc(OCCN3CCOCC3)c3ccc(Cl)cc23)cc(C(C)(C)C)cc1NS(C)(=O)=O [Compound 74]
Second: COc1c(NC(=O)C(=O)c2ccc(OCCN3CCOCC3)c3cccc(Cl)c23)cc(C(C)(C)C)cc1NS(C)(=O)=O [Compound 76]
The IC50 of the first is lower: 5 to 500 nM for the first, over 500 nM for the second. The first is the more potent here.

`COc1c(NC(=O)C(=O)c2ccc(OC)c3ccccc23)cc(C(C)(C)C)cc1NS(C)(=O)=O` [Compound 75] and `CCCS(=O)(=O)Nc1cc(C(C)(C)C)cc(NC(=O)C(=O)c2ccc(OC)c3ccccc23)c1OC` [Compound 78] fall in the same range of IC50: 5 to 500 nM for the first, 5 to 500 nM for the second.

`COc1c(NC(=O)C(=O)c2ccc(OC)c3ccccc23)cc(C(C)(C)C)cc1C(N)=O` [Compound 77] and `COc1c(NC(=O)C(=O)c2ccc(OCC(N)=O)c3ccccc23)cc(C(C)(C)C)cc1NS(C)(=O)=O` [Compound 85] cannot be ordered by IC50: over 500 nM for the first, over 500 nM for the second.

`CCN(CC)CCOc1ccc(C(=O)C(=O)Nc2cc(C(C)(C)C)cc(NS(C)(=O)=O)c2OC)c2ccccc12` [Compound 79] and `COc1c(NC(=O)C(=O)c2ccc(OCCN(C)C)c3ccccc23)cc(C(C)(C)C)cc1NS(C)(=O)=O` [Compound 80] cannot be ordered by IC50: over 500 nM for the first, over 500 nM for the second.

`O=C(Nc1cnc2ccccc2c1)C(=O)c1ccc(OCCN2CCOCC2)c2ccccc12` [Compound 81] and `O=C(Nc1n[nH]c2ccccc12)C(=O)c1ccc(OCCN2CCOCC2)c2ccccc12` [Compound 113] cannot be ordered by IC50: over 500 nM for the first, over 500 nM for the second.

`O=C(Nc1cc(C(F)(F)F)ccc1Cl)C(=O)c1ccc(OCCN2CCOCC2)c2ccccc12` [Compound 82] and `O=C(Nc1cc(C(F)(F)F)ccc1Br)C(=O)c1ccc(OCCN2CCOCC2)c2ccccc12` [Compound 83] cannot be ordered by IC50: over 500 nM for the first, over 500 nM for the second.

`CCCS(=O)(=O)Nc1cc(C(C)(C)C)cc(NC(=O)C(=O)c2ccc(OCC(=O)c3ccc(OC)cc3)c3ccccc23)c1OC` [Compound 84] and `COCCOCCOc1ccc(C(=O)C(=O)Nc2cc(C(C)(C)C)cc(NS(C)(=O)=O)c2OC)c2ccccc12` [Compound 86] cannot be ordered by IC50: over 500 nM for the first, over 500 nM for the second.

Compared with `CCCS(=O)(=O)Nc1cc(C(C)(C)C)cc(NC(=O)C(=O)c2ccc(N3CCC(CC(=O)OCC)CC3)c3ccccc23)c1OC` [Compound 87], `COc1c(NC(=O)C(=O)c2ccc(OCCCS(=O)(=O)N(C)C)c3ccccc23)cc(C(C)(C)C)cc1NS(C)(=O)=O` [Compound 123] is lower in IC50: over 500 nM for the first, 5 to 500 nM for the second. The second is the more potent here.

First: CC(C)(C)c1cc(C#N)cc(NC(=O)C(=O)c2ccc(Br)c3ccccc23)c1 [Compound 88]
Second: CC(C)(C)c1cc(NC(=O)C(=O)c2ccc(OCCN3CCOCC3)c3ccccc23)cc(NS(C)(=O)=O)c1 [Compound 109]
The IC50 of the first is higher: over 500 nM for the first, 5 to 500 nM for the second. The second is the more potent here.

`O=C(Nc1ccc2c(c1)OCCO2)C(=O)c1ccc(OCCN2CCOCC2)c2ccccc12` [Compound 90] and `Cc1ccc(Cl)cc1NC(=O)C(=O)c1ccc(OCCN2CCOCC2)c2ccccc12` [Compound 112] cannot be ordered by IC50: over 500 nM for the first, over 500 nM for the second.

First: COc1c(NC(=O)C(=O)c2ccc(OCCN3CCOCC3)c3ccccc23)cc(C(C)(C)C)cc1-c1nnn[nH]1 [Compound 91]
Second: COc1c(NC(=O)C(=O)c2ccc(OCCN3CCOCC3)c3ccccc23)cc(C(C)(C)C)cc1-n1ccnn1 [Compound 108]
The IC50 of the first is higher: over 500 nM for the first, 5 to 500 nM for the second. The second is the more potent here.

Compared with `COc1c(NC(=O)C(=O)c2ccc(OCC[N+]3([O-])CCOCC3)c3ccccc23)cc(C(C)(C)C)cc1NS(C)(=O)=O` [Compound 92], `COc1c(NC(=O)C(=O)c2ccc(OCCN3CCOCC3)c3ccccc23)cc(C(F)(F)F)cc1NS(C)(=O)=O` [Compound 116] is higher in IC50: 5 to 500 nM for the first, over 500 nM for the second. The first is the more potent here.

Compared with `COc1c(NC(=O)C(=O)c2ccc(OCCN(CCOCc3ccccc3)CCOCc3ccccc3)c3ccccc23)cc(C(C)(C)C)cc1NS(C)(=O)=O` [Compound 93], `COc1c(NC(=O)C(=O)c2ccc(OCCN3CC(C)(C)OC(C)(C)C3)c3ccccc23)cc(C(C)(C)C)cc1NS(C)(=O)=O` [Compound 96] is lower in IC50: over 500 nM for the first, 5 to 500 nM for the second.

`COc1c(C#N)cc(C(C)(C)C)cc1NC(=O)C(=O)c1ccc(-c2ccc(NCCC(C)(C)C)nc2)c2ccccc12` [Compound 94] and `COc1c(C#N)cc(C(C)(C)C)cc1NC(=O)C(=O)c1ccc(Nc2ccnc(N3CCCC3)n2)c2ccccc12` [Compound 95] cannot be ordered by IC50: over 500 nM for the first, over 500 nM for the second.

`COc1c(NC(=O)C(=O)c2ccc(OCCN3CCOCC3)c3ccccc23)cc(C(C)(C)C)cc1C(=O)N1CCNCC1` [Compound 97] and `COc1c(NC(=O)C(=O)c2ccc(OCCN3CCOCC3)c3ccccc23)cc(C(C)(C)C)cc1C(=O)N1CCN(C)CC1` [Compound 98] cannot be ordered by IC50: over 500 nM for the first, over 500 nM for the second.

Compared with `COc1c(NC(=O)C(=O)c2ccc(OCCN3CCOCC3)c3ccccc23)cc(C(C)(C)C)cc1C(=O)N1CCN(C(C)C)CC1` [Compound 99], `COc1c(NC(=O)C(=O)c2ccc(OCCN3CCOCC3)c3ccccc23)cc(C(C)(C)C)cc1C(=O)N1CCCN(C)CC1` [Compound 102] is higher in IC50: 5 to 500 nM for the first, over 500 nM for the second. The first is the more potent here.

`COc1c(NC(=O)C(=O)c2ccc(OCCN3CCOCC3)c3ccccc23)cc(C(C)(C)C)cc1C(=O)N1CCN(CC2CC2)CC1` [Compound 100] and `COc1c(NC(=O)C(=O)c2ccc(OCCN3CCOCC3)c3ccccc23)cc(C(C)(C)C)cc1C(=O)N1CCN(CCO)CC1` [Compound 101] cannot be ordered by IC50: over 500 nM for the first, over 500 nM for the second.

`COc1c(NC(=O)C(=O)c2ccc(OCCN3CCOCC3)c3ccccc23)cc(C(C)(C)C)cc1C(=O)NC1CCN(C)CC1` [Compound 103] and `COc1c(NC(=O)C(=O)c2ccc(OCCN3CCOCC3)c3ccccc23)cc(C(C)(C)C)cc1C(=O)NC1CCNCC1` [Compound 105] cannot be ordered by IC50: over 500 nM for the first, over 500 nM for the second.

`COc1c(NC(=O)C(=O)c2ccc(OCCN3CCOCC3)c3ccccc23)cc(C(C)(C)C)cc1C(=O)N1CC2CCC(C1)N2` [Compound 104] and `COc1c(NC(=O)C(=O)c2ccc(OCCN3CCOCC3)c3ccccc23)cc(C(C)(C)C)cc1C(=O)N1CCCCC1CN(C)C` (stereo not drawn) [Compound 106] cannot be ordered by IC50: over 500 nM for the first, over 500 nM for the second.

Compared with `COc1c(NC(=O)C(=O)c2ccc(OCCN3CCOCC3)c3ccccc23)cc(C(C)(C)C)cc1-n1ccnc1` [Compound 107], `COc1c(NC(=O)C(=O)c2ccc(OCCN3CCOCC3)c3ccccc23)cc(C(C)(C)C)cc1N(CCN1CCOCC1)S(C)(=O)=O` [Compound 117] is higher in IC50: 5 to 500 nM for the first, over 500 nM for the second. The first is the more potent here.

First: COc1c(NC(=O)C(=O)c2ccc(OCCN3CCOCC3)c3ccccc23)cccc1NS(C)(=O)=O [Compound 110]
Second: COc1ccc(I)cc1NC(=O)C(=O)c1ccc(OCCN2CCOCC2)c2ccccc12 [Compound 121]
The IC50 of the first is higher: over 500 nM for the first, 5 to 500 nM for the second.

`O=C(NC1Cc2ccccc2C1)C(=O)c1ccc(OCCN2CCOCC2)c2ccccc12` [Compound 114] and `O=C(NC1CCc2ccccc21)C(=O)c1ccc(OCCN2CCOCC2)c2ccccc12` (stereo not drawn) [Compound 115] cannot be ordered by IC50: over 500 nM for the first, over 500 nM for the second.

First: O=C(Nc1nc(Cl)ccc1[N+](=O)[O-])C(=O)c1ccc(OCCN2CCOCC2)c2ccccc12 [Compound 118]
Second: O=C(Nc1cc(Br)cnc1Cl)C(=O)c1ccc(OCCN2CCOCC2)c2ccccc12 [Compound 119]
The IC50 of the first is higher: over 500 nM for the first, 5 to 500 nM for the second. The second is the more potent here.

In the case of `COc1c(NC(=O)CCCCC2SCC3NC(=O)NC32)cc(C(C)(C)C)cc1NC(=O)C(=O)c1ccc(OCCN2CCOCC2)c2ccccc12` (stereo not drawn) [Compound 120], the IC50 is reported as 5 to 500 nM.
